Data from US8569511B2, “Substituted 3-(1H-benzo[d]imidazol-2-yl)-1H-indazole analogs as inhibitors of the PDK1 kinase” (University of Utah Research Foundation, priority 2011, dated 2013).
pIC50: −log10 of the molar value.

Tests used:
Assay type in all cases: cell-based
[1] = system: LNCap; assay: Cell viability assay, cancer cell line panel; settings: Homo sapiens, mutation PTEN
[2] = system: HCT-116; assay: Cell viability assay, cancer cell line panel; settings: Homo sapiens, mutation KRAS, PIK3CA
[3] = system: AKT phosphorylation (Thr308) in AN3-CA cells; assay: AKT (T308) Phosphorylation Assay (Meso Scale Discovery); settings: Homo sapiens, 24 hours, FIG. 7A, read-out: IC50 knock down of phospho-AKT (Thr308) levels
Procedure: AN3-CA cells were plated in 900 μl of RPMI-1640 media supplemented with 10% FBS and 1% Pen/Strep at a density of 8×10^5 cells per well in 6-well plates. Cells were allowed to attach by incubation overnight at 37° C. and 5% CO2. Test compounds were diluted to 10× concentrations in RPMI-1640 media (containing 3% DMSO) and 100 μl of these dilutions were added to the appropriate wells containing the cells. The plates containing the drug-treated cells and appropriate controls were incubated for 24 hours. At the end of incubation, phosphorylated AKT was evaluated in treated and control samples using a Meso Scale Discovery (Gaithersburg, Md.) assay kit (human Phospho-Akt (Thr308) kit) and by following the manufacturer's instructions included with the kit. Total AKT (phosphorylated and unphosphorylated) was also evaluated in the samples using a separate kit (Meso Scale Discovery). The percentage of AKT phosphorylated at the Thr308 position (also indicated as T308 herein) was determined by normalizing the phospho-AKT signal to the total AKT signal and then showing the percent phosphorylation in the treated samples relative to the controls.
Briefly, AN3-CA cells were treated with the compound for 24 hours and lysates from these treatments were analyzed for phospho-AKT (Thr308) using the Meso Scale Discovery technology platform as described above.

[4] = system: KG-1 cell line; assay: Screen of further cell lines; settings: acute myeloid leukemic line
Text: (§1) In order to determine if there were additional cell lines that were profoundly sensitive to this compound, a further 82 cell lines were screened which represented more than 20 different tumor types of origin. […] Without wishing to bound by a particular theory, these three additional cell lines are all acute myeloid leukemic lines that have different activating mutations in oncogenes that have been associated with elevated PI3K activity. MV4-11 has the FLT3 internal tandem duplication (ITD) and Kasumi-1 has amplified and mutated c-kit as well as the AML-ETO gene fusion. […] All three lines have wild-type PTEN but have shown to express very low levels of PTEN protein, which makes them functionally deficient for PTEN.

[5] = system: Kasumi cell line; assay: Screen of further cell lines; settings: acute myeloid leukemic line
Text: as §1

[6] = system: MV4-11 cell line; assay: Screen of further cell lines; settings: acute myeloid leukemic line
Text: as §1

O=C(Nc1ccc2[nH]nc(-c3nc4ccc(N5CCOCC5)cc4[nH]3)c2c1)C1CC1(F)F (stereo not drawn) [Compound 1, 2,2-difluoro-N-(3-(5-morpholino-1H-benzo[d]imidazol-2-yl)-1H-indazol-5-yl)cyclopropanecarboxamide]
pIC50 [1]: 4.61
pIC50 [2]: 5.60
pIC50 [3]: 7.29
Sensitivity of KG-1 cell line [4]: very sensitive
Sensitivity of Kasumi cell line [5]: very sensitive
Sensitivity of MV4-11 cell line [6]: very sensitive
